How the values were obtained:
FLT3 = FLT3 (Homo sapiens, UniProt P36888); settings: cited from earlier work
[1] = tested on: β-catenin/TCF target genes; assay: Expression of Wnt/β-catenin and Notch pathway genes (immunoblot, qPCR); type: cell-based, human; settings: 24 hr, 100 nM
Experimental: (§1) SDS-PAGE gel electrophoresis was performed using NuPAGE 4-12% Bis-Tris gels (Invitrogen) and transferred to PVDF membranes by semi-dry transfer using trans-blot transfer medium (Biorad). Membranes were blocked in Odyssey blocking buffer (LI-COR Biosciences) and incubated overnight at 4° C. with primary antibodies. After repeated washes with TBST (20 mM Tris, pH 7.6, 140 mM NaCl and 0.1% Tween-20) blots were incubated with the appropriate IRDye-conjugated secondary antibody (LI-COR Biosciences) and imaged using the LI-COR Odyssey. Bands were quantified using the Odyssey software (LI-COR Biosciences). The following antibodies were used in this study: CK1δ and Histone H4 (Abcam), CK1ε, c-Myc (9E10), Cyclin-D1 and β-actin (Santa Cruz), β-catenin (Cell Signaling), GAPDH (Millipore) and CD44 (R&D Systems).
Total RNA was obtained using the RNeasy Plus Mini Kit (Qiagen) and 1-2 μg of RNA was reverse transcribed with Superscript III First Strand Synthesis System (Life Technologies). Quantitative PCR was performed using the Power SYBR Green PCR Master Mix (Life Technologies) and the ABI7900HT Fast Real-Time PCR System. Intron-spanning gene-specific primer pairs were designed using the Primer3 algorithm and relative expression values for each gene of interest obtained by normalizing to GAPDH mRNA expression using the ^ΔΔCt method.

[2] = tested on: MDA-MB-231 tumor xenografts; assay: Established orthotopic tumor xenograft; type: in vivo, nude mice; settings: 20 mg/kg daily i.p.
Text: (§2) All animal studies are approved by the Scripps Florida IACUC. Stable pools of MDA-MB-231-Luc, MDA-MB-231, MDA-MB-468, SKBR3 or BT474 cells were established by injection of 2×10^6 cancer cells into the mammary fat pads of 6-week old female athymic nude mice (Charles River Laboratories). Establishment of BCM-4013 patient derived xenografts were as described (19). Briefly, fresh xenograft tumor fragments (˜1 mm^3) were transplanted into the cleared mammary fat pad of recipient SCID/Bg mice (Charles River Laboratories). Mice were treated with SR-3029 or vehicle (10:10:80, DMSO:Tween-80:Water) at 20 mg/kg daily by i.p. injection. Tumor volumes were measured as the indicated intervals using calipers or by luminescence imaging using the IVIS 100 imager (exposure time, 1-60 sec; binning 8; field of view 15-cm; f/stop 1; open filter) following subcutaneous injection of luciferin (15 mg/ml, Goldbio Technology). Average radiance (p/s/cm^2/sr) was determined from tumor region-of-interest (ROI) using Living-Image (Xenogen) analysis software.
For apoptotic detection in cryosections tumors and small intestines were fixed in 10% buffered formalin for 2 hr, incubated in 20% sucrose overnight and embedded in OCT. Frozen sections ([…]) were mounted and stained using the ApopTag Red In Situ Kit according to the manufacturer instructions (CHEMICON). For H&E staining, tissues were fixed in 10% buffered formalin for 48 hr, transferred to 70% ethanol/PBS and embedded in paraffin. Staining was performed on […] sections following deparaffinization (AML Laboratories).

β-catenin = β-catenin expression by immunoblot in breast cancer cells; type: cell-based, human; settings: 18 hr
Experimental: as §1

MDA-MB-231-luc tumors = assay: Orthotopic MDA-MB-231-luc tumor model, treatment from day 7; type: in vivo, nude mice; settings: 20 mg/kg daily i.p.
Text: as §2

MCF10A cell line = assay: Cell proliferation assay (Cell-Titer Glo, 72 hr); type: cell-based, human; settings: low CK1δ; versus CK1δ overexpressing cells
Experimental: (§3) Cell proliferation was measured 72 hr after SR-3029 or vehicle treatment using Cell-Titer Glo (Promega) according to the manufacturers' instructions. EC50 values were determined using non-linear regression and a four-parameter algorithm (GraphPad Prism5). For clonogenic assays, cells were plated in 6-well dishes in triplicate at a density of 500-1000 cells per well. After overnight incubation, SR-3029 or vehicle (DMSO) was added to media for 72 hr and cells were allowed to grow out for 7-10 days, during which media was changed every 2-3 days in the absence of compound. Colonies were fixed in 4% paraformaldehyde/PBS and stained with 0.5% methylene blue in 50% ethanol for 1 hr at room temperature and de-stained with water. Colonies with greater than 50 cells were counted using a low magnification light microscope.

MCF7 breast cancer cells = assay: Cell proliferation assay (Cell-Titer Glo, 72 hr); type: cell-based, human; settings: low CK1δ; versus CK1δ overexpressing cells
Experimental: as §3

T47D breast cancer cells = assay: Cell proliferation assay (Cell-Titer Glo, 72 hr); type: cell-based, human; settings: low CK1δ; versus CK1δ overexpressing cells
Experimental: as §3

[3] = tested on: breast cancer cell types overexpressing CK1δ; assay: Cell proliferation assay (Cell-Titer Glo, 72 hr); type: cell-based; settings: Homo sapiens
Experimental: as §3

Chain of FLT3 (P36888 564-993 limits assumed): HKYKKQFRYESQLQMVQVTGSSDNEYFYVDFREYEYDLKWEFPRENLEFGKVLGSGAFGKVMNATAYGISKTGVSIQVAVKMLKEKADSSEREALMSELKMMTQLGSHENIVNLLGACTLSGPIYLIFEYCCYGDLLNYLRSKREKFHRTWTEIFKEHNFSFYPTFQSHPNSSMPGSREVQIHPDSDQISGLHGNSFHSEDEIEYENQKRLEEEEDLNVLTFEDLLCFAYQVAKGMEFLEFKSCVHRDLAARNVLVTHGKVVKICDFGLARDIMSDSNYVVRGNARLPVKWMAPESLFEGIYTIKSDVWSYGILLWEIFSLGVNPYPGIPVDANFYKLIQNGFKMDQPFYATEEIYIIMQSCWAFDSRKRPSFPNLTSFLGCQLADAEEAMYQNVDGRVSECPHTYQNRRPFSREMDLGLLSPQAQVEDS

SMILES: Fc1cccc(-n2cnc3c(NCc4nc5ccc(F)c(F)c5[nH]4)nc(N4CCOCC4)nc32)c1 [SR-3029]
- FLT3 off-target activity (FLT3): common (and weak) off-target
- Notch pathway mRNAs (JAG1, NUMB, DTX) [1]: no effect
- expression of endogenous β-catenin/TCF target genes (CCND1, MYC, CD44, WNT3, WNT9A) [1]: repressed
- expression of the endogenous Wnt antagonist SFRP1 [1]: marked increase
- lifespan (Kaplan-Meier survival) [2]: significantly prolonged lifespan
- tumor apoptosis (TUNEL) [2]: fulminant apoptosis
- tumor growth ([2]; tumors 100-mm^3 before treatment): marked tumor growth inhibition
- expression of the active, nuclear pool of β-catenin (β-catenin; MDA-MB-231, MDA-MB-436, MDA-MB-468 and BT474 cells, 30 nM): markedly reduced
- unphosphorylated, active form of β-catenin (ABC) (β-catenin; MDA-MB-231 cells): reduction
- tumor growth (MDA-MB-231-luc tumors; single agent, start seven days after engraftment): markedly impaired tumor growth
- recipients that developed tumors (MDA-MB-231-luc tumors; n=8 per cohort): 2
- sensitivity in cell proliferation assay (MCF10A cell line): 2-3 orders of magnitude less sensitive
- sensitivity in cell proliferation assay (MCF7 breast cancer cells): 2-3 orders of magnitude less sensitive and relative insensitivity and refractory
- sensitivity in cell proliferation assay (T47D breast cancer cells): 2-3 orders of magnitude less sensitive
- EC50 [3]: 5 to 70 nM

— patent US10603322B2, “Therapeutic targeting of casein kinase 1δ in breast cancer” (The Scripps Research Institute, priority 2015, dated 2020)
